# Measured values published in patent US11046647B2, “Activators of the unfolded protein response” (The Board of Trustees of the University of Illinois, priority 2018, dated 2021).
# Key:
# Type in all cases: cell-based, human
# TYS cells = experiment: Trypan Blue exclusion cell death assay, TYS / TYS-Luc; conditions: 24 hours
# Source text: (§1) TRYPAN BLUE: For decades, viable cells have been measured by their ability to exclude the dye Trypan Blue. […] Dead cells, which have lost membrane integrity, take up the dye and are blue. Thus, the percentage of dead cells is the percentage of cells that are Trypan Blue positive out of the total cell population. Quantitative assessment of Trypan Blue uptake uses a cell counter from Fisher. Since the assay is instrument based, there is no observer bias in determining the percentage of Trypan Blue positive cells.
# (§2) TRYPAN BLUE ASSAYS: Assays are performed on cells in 6 well plates: 300,000 cells are plated in each well of a 6-well plate in 3 ml of medium. After 24 hours, the DMSO vehicle or the indicated compound is added (in 1000th of the vol.) The cells incubated for an additional 24 hours, and then harvested in 0.25 ml of trypsin, followed after harvest by 0.75 ml of medium. The cells are spun down and resuspended in 100-200 μl of medium left that is over the cell pellet (resuspend cells by pipetting up and down a few times). Add 10 μl to 10 μl of trypan blue. Then 10 μl is inserted into the counting slide. After inserting the slide into the Fisher TC20 counting is automatic (these many cells are needed because an accurate ratio of Trypan Blue positive to Trypan Blue negative cells requires about 200 cells in the field the instrument counts).
# The Trypan Blue cell death assay was used to evaluate the ability of the active enantiomer of 105 (−) [(−)-105] to kill ERα positive MCF-7 and TYS-Luc, human breast cancer cells. 300,000 T47D cells/well in 10% FBS were plated in a 6-well plate in triplicate. 24 hours after plating, the indicated concentrations of BHPI, or the active enantiomer 105 (−) of C-105 [(−)-105] was added. After 24 hours, the cells were harvested, and the % dead cells was determined by automated Trypan Blue exclusion using the Countess II automated hemocytometer. Percentage of viable cells was calculated by doing 100-(Cell Death %). (n=3±SEM).
# TYS cells were incubated for 24 hours with 35 nM of BHPI or 35 nM of each of the indicated test compounds: 2, 4, and 105. Cell death was determined using the instrument-based Trypan Blue exclusion assay.
# TYS cells were incubated for 24 hours with 50 nM of BHPI or 50 nM of each of the indicated test compounds: 4, 6 and 105. Cell death was determined using the instrument-based Trypan Blue exclusion assay. (n=3±SEM).
# TDG cells = experiment: Trypan Blue exclusion cell death assay, TDG / TDG-Luc; conditions: 24 hours
# Source text: as §1, §2
# The Trypan Blue cell death assay was used to evaluate the ability of the active enantiomer of C-105 [(−)-105] to kill ERα positive TDG-Luc cells. For all studies, 300,000 TDG-Luc cells/well in 10% FBS were plated in a 6-well plate in triplicate. 24 hours after plating, the indicated concentrations the active enantiomer of (−)-105, or BHPI (top) ICI, or OHT (Lower left) or (+)-105 (lower right) were added. After 24 hours, the cells were harvested, and the % dead cells was determined by automated Trypan Blue exclusion using the Countess II automated hemocytometer. Percentage of viable cells was calculated by doing 100-(Cell Death %). (n=3±SEM).
# TDG cells were incubated for 24 hours with 75 nM of BHPI or 75 nM of each of the indicated test compounds: 4, 6 and (±)-105 (enantiomers not separated). Cell death was determined using the instrument-based Trypan Blue exclusion assay. Structures are in the Synthesis section. […] (n=3±SEM).
# MCF-7 cells [1] = experiment: Alamar Blue/raptinal 24-hour cell death assay, MCF-7; conditions: for IC50: 24-hour incubation, Alamar blue fluorescence, normalized to vehicle and raptinal
# Experimental: FIG. 4. […] MCF7 (ERα) cells, 24 hour incubation, read out via Alamar Blue Fluorescence, Dead Control: Raptinal, n=3 (A, B). […] Orthotopic Mouse Xenograft breast cancers of TYS cells, Visualization by bioluminescent imaging. Treatment: 40 mg/kg daily (−)-105 for 3 days either by oral gavage or by intraperitoneal injection.
# ALAMAR BLUE/RAPTINAL ASSAY: Live cells maintain a reducing environment. The non-fluorescent cell permeable ingredient of Alamar Blue® (resazurin) is taken up by cells. In living cells, it is reduced to the fluorescent compound resorufin. Using a standard curve of cell number versus fluorescence the number of live cells in a test sample can be determined. At high concentrations raptinal kills 100% of cells. The vehicle in which the test compound is dissolved is not toxic. Thus, after subtracting the blank for medium alone, the fluorescence reading for vehicle corresponds to 100% viable cells and the signal for raptinal corresponds to 0% viable cells. While this assay provides a less direct measurement of cell death than the trypan blue assay, it is more easily scaled up to large numbers of samples.
# ALAMAR BLUE RAPTINAL ASSAYS: Cells were plated at 4,000-10,000 cells/well (96 well plate), usually in 50 μl of medium. After about 18 hours, an additional 50 μl of medium containing 2× the desired final concentration of the test compound (C-105) was added to each well. After 24 hours Alamar Blue reagent was added and fluorescence in the wells was read (BMG PheraStar or Molecular Devices Spectra Max M3 Microplate Reader). % relative death was determined by setting the reading for raptinal-treated cells to 100% dead cells and the reading for vehicle-treated cells to 0% dead cells.
# Preparative gram-scale chiral separation of (±)-1 yields enantiopure (R)-1 and (S)-1 with opposite optical rotations (Scheme 5). […] Values were obtained after 24-hour incubation utilizing Alamar blue fluorescence assay normalized to live and death controls (vehicle and raptinal treated). (S)-1 IC50 is >1 μM. Error shown as S.E.M.
# T47D cells = experiment: Trypan Blue exclusion cell death assay, T47D / T47D-Luc; conditions: 24 hours
# Source text: as §1
# as §2, with “After inserting the slide into the Fisher TC20 counting is automatic (these many cells are needed because an accurate ratio of Trypan Blue positive to Trypan Blue negative cells requires about 200 cells in the field the instrument counts).” left out
# The Trypan Blue cell death assay was used to compare the ability of the active (−) enantiomer of C-105 and BHPI to kill estrogen receptor α (ERα) positive T47D, human breast cancer cells expressing luciferase (T47D-Luc cells). […] After 24 hours, the cells were harvested, and the % dead cells was determined by automated Trypan Blue exclusion using the Countess II automated hemocytometer. Percentage of viable cells was calculated by doing 100-(Cell Death %). […]
# T47D cells were incubated for 24 hours with 75 nM of BHPI or 75 nM of each of the indicated test compounds: 4 and 6. Cell death was determined using the instrument-based Trypan Blue exclusion assay. […]
# T47D cells were treated for 24 hours with 100 nM BHPI, or with 100 nM of each of the test compounds: 6, 8, and 105. […] Cell death was determined using the instrument-based Trypan Blue exclusion assay. […]
# MCF-7 cells [2] = experiment: Dose-dependent death of MCF-7 cells (FIG. 10)
Compound,ability to kill TYS cells compared to BHPI (TYS cells; 35 nM),ability to kill TYS cells compared to BHPI (TYS cells; 50 nM),ability to kill TDG cells compared to BHPI (TDG cells; 75 nM),"IC50 (MCF-7 cells [1]; Homo sapiens, MCF7)",ability to kill T47D cells compared to BHPI (T47D cells; 100 nM),cell death (MCF-7 cells [2]),"killing of TYS-Luc cells, dose response (TYS cells; TYS-Luc)","killing of TDG-Luc cells, dose response (TDG cells; TDG-Luc)",IC50 (MCF-7 cells [1]; listed as (R)-1),"ability to kill compared with BHPI and 01-15 (FIG. 4B) (MCF-7 cells [1]; 24 hour incubation, dead control raptinal)","killing of T47D cells, dose response (T47D cells; T47D-Luc)"
"O=C1Nc2c(C(F)(F)F)cccc2C1(c1ccc(O)cc1)c1ccc(OC(F)(F)F)cc1 (racemic) [(±)-105, 3-(4-hydroxyphenyl)-3-(4-(trifluoromethoxy)phenyl)-7-(trifluoromethyl)indolin-2-one]",greatly increased ability to kill,increased ability to kill,greatly increased ability to kill,42.6 nM,increased ability to kill,inactive,–,–,–,–,–
"O=C1Nc2c(C(F)(F)F)cccc2C1(c1ccc(O)cc1)c1ccc(OC(F)(F)F)cc1 (single isomer, unassigned; (-)) [(−)-105, 3-(4-hydroxyphenyl)-3-(4-(trifluoromethoxy)phenyl)-7-(trifluoromethyl)indolin-2-one]",–,–,–,–,–,induces dose-dependent death,superior to BHPI,superior to BHPI and current endocrine therapies,20.3 nM,superior to BHPI and 01-15,superior to BHPI
